Measured values from patent US11548888B2, “KRas G12C inhibitors” (Mirati Therapeutics, Inc., priority 2019, dated 2023).
pIC50: −log10 of the molar value.

Biological target: T1, KRas G12C (Homo sapiens, UniProt P01116, G12C)
T1 construct: NCI-H358 cells (ATCC CRL-5807) express KRas G12C
Assay: Inhibition of KRas G12C-dependent cell growth: Phospho-ERK in NCI-H358 cells
Assay type: cell-based
Conditions: NCI-H358 cells expressing KRas G12C; Phospho-ERK (Thr202/Tyr204) normalized to GAPDH; 3 hours compound; 4 parameter fit
Protocol: The cellular inhibition of KRAs G12C by exemplary compounds of the present invention was determined by measuring the amount of a downstream marker of KRas activity, phosphorylated ERK (“Phospho-ERK”).
NCI-H358 cells (ATCC CRL-5807) express KRas G12C and were grown in RPMI medium supplemented with 10% fetal bovine serum, penicillin/streptomycin and 10 mM HEPES. Cells were plated in poly-D-Lysine coated 96-well plates at a concentration of 50,000 cells/well and allowed to attach for 8-12 hours. Diluted compounds were then added at a final concentration of 0.5% DMSO. After 3 hours, the medium was removed, 150 μL of 4% formaldehyde was added and the plates were incubated for 20 minutes. The plates were washed with PBS, and permeabilized using 150 μL of ice cold 100% methanol for 10 minutes. Non-specific antibody binding to the plates was blocked using 100 μL Licor Blocking Buffer (Li-Cor Biotechnology, Lincoln Nebr.) for 1 hour at room temperature. Positive control samples and samples lacking cells were parallel processed with test samples as standards.
The amount Phospho-ERK was determined using an antibody specific for the phosphorylated form of ERK and compared to the amount of GAPDH. Primary antibodies used for detection were added as follows: Phospho-ERK (Cell Signaling cs9101) diluted 1:500 and GAPDH (Millipore MAB374) diluted 1:5000 in Licor block+0.05% Tween 20. The plates were incubated for 2 hours at room temperature. The plates were washed with PBS+0.05% Tween 20.
Secondary antibodies used to visualize primary antibodies were added as follows: Anti-rabbit-680 diluted 1:1000 and Anti-mouse-800 diluted 1:1000 in Licor Block+0.05% Tween 20 and incubated for 1 hour at room temperature. The plates were washed with PBS+0.05% Tween 20. A 100 μL aliquot of PBS was added to each well and the plates were read on a LICOR AERIUS plate reader.
The pERK(Thr202/Tyr204) signal was normalized with the GAPDH signal and percent of DMSO control values were calculated. IC50 values were generated using a 4 parameter fit of the dose response curve.

T1 sequence (P01116 1-188 isoform P01116-2 G12C): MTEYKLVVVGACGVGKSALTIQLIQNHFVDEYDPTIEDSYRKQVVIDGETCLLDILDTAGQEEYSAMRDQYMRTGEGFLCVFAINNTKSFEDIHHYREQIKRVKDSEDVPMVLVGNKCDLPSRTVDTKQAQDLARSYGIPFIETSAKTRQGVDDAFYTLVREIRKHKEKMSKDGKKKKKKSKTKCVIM

Row | SMILES | pIC50
1 | C=CC(=O)N1CC[C@@H]2[C@H]1CN2c1nc(OCC23CCCN2CCC3)nc2c(F)c(-c3cccc4ccc(F)c(Cl)c34)ncc12 [Example 227] | 8.30
2 | C=C(F)C(=O)N1CCN(c2nc(N3CC(N(C)C)C3)nc3c(F)c(-c4cccc5cccc(Cl)c45)ncc23)C[C@@H]1CC#N [Example 91] | 7.54
3 | C=CC(=O)N1CCN(c2ncnc3cc(-c4cc(O)cc5ccccc45)ncc23)CC1 [Example 1, 1-(4-(7-(3-hydroxynaphthalen-1-yl)pyrido[4,3-d]pyrimidin-4-yl)piperazin-1-yl)prop-2-en-1-one] | 5.72
4 | N#CC[C@H]1CN(c2ncnc3c(F)c(-c4cccc5ccc(F)c(Cl)c45)ncc23)CCN1C(=O)/C=C/C(F)F [Example 115] | 7.12
5 | C#Cc1cccc2cc(O)cc(-c3ncc4c(N5CCN(C(=O)C=C)CC5)ncnc4c3F)c12 [Example 215, 1-(4-(7-(8-ethynyl-3-hydroxynaphthalen-1-yl)-8-fluoropyrido[4,3-d]pyrimidin-4-yl)piperazin-1-yl)prop-2-en-1-one] | 7.51
6 | C=CC(=O)N1CC[C@@H]2[C@H]1CN2c1nc(OC[C@@H]2[C@@H]3C[C@@H]3CN2C)nc2c(F)c(-c3cccc4ccc(F)c(Cl)c34)ncc12 [Example 252] | 7.54
7 | CN1C[C@H](F)C[C@H]1COc1nc(N2CCN(C(=O)/C=C/CF)[C@@H](CC#N)C2)c2cnc(-c3cccc4cccc(Cl)c34)c(F)c2n1 [Example 43, 2-[(2S)-4-[7-(8-chloro-1-naphthyl)-8-fluoro-2-[[(2S,4R)-4-fluoro-1-methyl-pyrrolidin-2-yl]methoxy]pyrido[4,3-d]pyrimidin-4-yl]-1-[(E)-4-fluorobut-2-enoyl]piperazin-2-yl]acetonitrile] | 8.40
8 | C=C(F)C(=O)N1CCN(c2nc(OCC34CCCN3CCC4)nc3c(F)c(-c4cccc5ccc(F)c(Cl)c45)ncc23)C[C@@H]1CC#N [Example 114] | 8.70
9 | C=CC(=O)N1CCN(c2nc(OC[C@@H]3CCCN3C)nc3c(F)c(-c4cccc5ccc(F)c(Cl)c45)ncc23)C[C@@H]1C [Example 141] | 7.30
10 | C=C(F)C(=O)N1CCN(c2nc(OCC3CCC4CCCN43)nc3c(F)c(-c4cccc5ccc(F)c(Cl)c45)ncc23)C[C@@H]1CC#N (stereo partly shown) [Example 174] | 7.70
11 | Cc1cccc2cncc(-c3ncc4c(N5CCN(C(=O)/C=C/CF)[C@@H](CC#N)C5)nc(OC[C@@H]5C[C@@H](F)CN5C)nc4c3F)c12 [Example 51, 2-[(2S)-1-[(E)-4-fluorobut-2-enoyl]-4-[8-fluoro-2-[[(2S,4R)-4-fluoro-1-methyl-pyrrolidin-2-yl]methoxy]-7-(5-methyl-4-isoquinolyl)pyrido[4,3-d]pyrimidin-4-yl]piperazin-2-yl]acetonitrile] | 7.72
12 | C=C(F)C(=O)N1CCN(c2nc(OCC3CCN3C)nc3c(F)c(-c4cccc5cccc(Cl)c45)ncc23)C[C@@H]1CC#N (stereo partly shown) [Example 71] | 7.89
13 | C=CC(=O)N1CCN(c2ncnc3c(F)c(-c4cccc5ccc(F)c(Cl)c45)ncc23)CC12CC2 [Example 234] | 5.00
14 | C=CC(=O)N1CCN(c2ncnc3c(F)c(-c4cccc5ccc(F)c(Cl)c45)ncc23)CC1C#N (stereo not shown) [Example 135] | 5.22
15 | C=CC(=O)N1CCN(c2nc(OCC34CCCN3CCC4)nc3c(F)c(-c4cccc5ccc(F)c(Cl)c45)ncc23)CC1 [Example 102] | 7.92
16 | C=C(F)C(=O)N1CCN(c2nc(OC[C@@H]3CCCN3C)nc3c(F)c(-c4cccc5ccc(F)c(Cl)c45)ncc23)C[C@@H]1CC#N [Example 92] | 7.96

Row | SMILES | pIC50
17 | C=C(F)C(=O)N1CCN(c2nc(OC[C@@H]3CC(F)(F)CN3C)nc3c(F)c(-c4cccc5cccc(Cl)c45)ncc23)C[C@@H]1CC#N [Example 21, 2-((S)-4-(7-(8-chloronaphthalen-1-yl)-2-(((S)-4,4-difluoro-1-methylpyrrolidin-2-yl)methoxy)-8-fluoropyrido[4,3-d]pyrimidin-4-yl)-1-(2-fluoroacryloyl)piperazin-2-yl)acetonitrile] | 6.98
18 | C=CC(=O)N1CC[C@@H]2[C@H]1CN2c1nc(OC[C@@H]2CC(F)(F)CN2C)nc2c(F)c(-c3cccc4ccc(F)c(Cl)c34)ncc12 [Example 262] | 6.94
19 | Cc1cccc2cncc(-c3ncc4c(N5CCN(C(=O)/C=C/CF)[C@@H](CC#N)C5)nc(OCCCN5C[C@@H]6C[C@H]5CO6)nc4c3F)c12 [Example 39, 2-[(2S)-1-[(E)-4-fluorobut-2-enoyl]-4-[8-fluoro-7-(5-methyl-4-isoquinolyl)-2-[3-[(1S,4S)-2-oxa-5-azabicyclo[2.2.1]heptan-5-yl]propoxy]pyrido[4,3-d]pyrimidin-4-yl]piperazin-2-yl]acetonitrile] | 6.26
20 | C=C(F)C(=O)N1CCN(c2nc(OCC3CN(C)CCO3)nc3c(F)c(-c4cccc5cccc(Cl)c45)ncc23)C[C@@H]1CC#N (stereo partly shown) [Example 65] | 7.44
21 | C=CC(=O)N1CCN(c2ncnc3cc(-c4cccc5cccc(C)c45)ncc23)C[C@@H]1CC#N [Example 40, (S)-2-(1-acryloyl-4-(7-(8-methylnaphthalen-1-yl)pyrido[4,3-d]pyrimidin-4-yl)piperazin-2-yl)acetonitrile] | 6.30
22 | C=C(F)C(=O)N1CCN(c2nc(O[C@@H]3CO[C@H]4[C@@H]3OC[C@H]4O)nc3c(F)c(-c4cccc5ccc(F)c(Cl)c45)ncc23)C[C@@H]1CC#N [Example 240] | 5.00
23 | C#Cc1c(F)ccc2cccc(-c3ncc4c(N5C[C@@H]6[C@H]5CCN6C(=O)C=C)ncnc4c3F)c12 [Example 290, 1-((1R, 5R)-6-(7-(8-ethynyl-7-fluoronaphthalen-1-yl)-8-fluoropyrido[4,3-d]pyrimidin-4-yl)-2,6-diazabicyclo[3.2.0]heptan-2-yl)prop-2-en-1-one] | 7.52
24 | C=C(F)C(=O)N1CCN(c2nc(OC[C@@H]3CCCN3C)nc3c(F)c(-c4cccc5cccc(Cl)c45)ncc23)C[C@@H]1CC#N [Example 18, 2-((S)-4-(7-(8-chloronaphthalen-1-yl)-8-fluoro-2-(((S)-1-methylpyrrolidin-2-yl)methoxy)pyrido[4,3-d]pyrimidin-4-yl)-1-(2-fluoroacryloyl)piperazin-2-yl)acetonitrile] | 7.30
25 | C=CC(=O)N1CCN(c2nc(OC[C@@H]3CCCN3C)nc3c(F)c(-c4cccc5ccccc45)ncc23)C[C@@H]1CC#N [Example 7, 2-[(2S)-4-[8-fluoro-2-[[(2S)-1-methylpyrrolidin-2-yl]methoxy]-7-(1-naphthyl)pyrido[4,3-d]pyrimidin-4-yl]-1-prop-2-enoyl-piperazin-2-yl]acetonitrile] | 8.15
26 | C=C(F)C(=O)N1CCN(c2nc(OC[C@@H]3CCCN3C)nc3c(Cl)c(-c4cccc5cccc(C)c45)ncc23)C[C@@H]1CC#N [Example 32, 2-[(2S)-4-[8-chloro-7-(8-methyl-1-naphthyl)-2-[[(2S)-1-methylpyrrolidin-2-yl]methoxy]pyrido[4,3-d]pyrimidin-4-yl]-1-(2-fluoroprop-2-enoyl)piperazin-2-yl]acetonitrile] | 6.86
27 | O=C(/C=C/C(F)(F)F)N1CC[C@@H]2[C@H]1CN2c1ncnc2c(F)c(-c3cccc4ccc(F)c(Cl)c34)ncc12 [Example 263] | 5.94
28 | CO[C@@H]1C[C@@H](COc2nc(N3CCN(C(=O)/C=C/CF)[C@@H](CC#N)C3)c3cnc(-c4cncc5cccc(C)c45)c(F)c3n2)N(C)C1 [Example 36, 2-[(2S)-1-[(E)-4-fluorobut-2-enoyl]-4-[8-fluoro-2-[[(2S,4R)-4-methoxy-1-methyl-pyrrolidin-2-yl]methoxy]-7-(5-methyl-4-isoquinolyl)pyrido[4,3-d]pyrimidin-4-yl]piperazin-2-yl]acetonitrile] | 7.36
29 | C=C(F)C(=O)N1CCN(c2nc(OC[C@@H]3C[C@@H](F)CN3C)nc3c(F)c(-c4cccc5cccc(C)c45)ncc23)C[C@@H]1CC#N [Example 14, 2-[(2S)-4-[8-fluoro-2-[[(2S,4R)-4-fluoro-1-methyl-pyrrolidin-2-yl]methoxy]-7-(8-methyl-1-naphthyl)pyrido[4,3-d]pyrimidin-4-yl]-1-(2-fluoroprop-2-enoyl)piperazin-2-yl]acetonitrile] | 6.92
30 | C#Cc1c(F)ccc2cccc(-c3ncc4c(N5C[C@@H]6[C@H]5CCN6C(=O)/C=C/C(F)F)ncnc4c3F)c12 [Example 300, (E)-1-((1R,5R)-6-(7-(8-ethynyl-7-fluoronaphthalen-1-yl)-8-fluoropyrido[4,3-d]pyrimidin-4-yl)-2,6-diazabicyclo[3.2.0]heptan-2-yl)-4,4-difluorobut-2-en-1-one] | 6.63
31 | C=CC(=O)N1CCN(c2ncnc3c(F)c(-c4cccc5cccc(Cl)c45)ncc23)C[C@@H]1CC#N [Example 108] | 7.43
